Common to all, as to assay type: biochemical
For one test, the target named is T1, JAK2 (Homo sapiens, UniProt O60674).
T1 construct: made in house; host or cells: SF9 insect cells (baculovirus)
In words: JAK2 inhibition (Table 4).

The target of a further test is T2, JAK3 (Homo sapiens, UniProt P52333).
T2 construct: made in house; host or cells: SF9 insect cells (baculovirus)
In words: JAK3 inhibition (Table 4). The conditions noted are these: read-out: JAK3 Ki.

The target in a further test is T3, TYK2 (Homo sapiens, UniProt P29597).
T3 construct: made in house; host or cells: SF9 insect cells (baculovirus)
T3 sequence (P29597 873-1187): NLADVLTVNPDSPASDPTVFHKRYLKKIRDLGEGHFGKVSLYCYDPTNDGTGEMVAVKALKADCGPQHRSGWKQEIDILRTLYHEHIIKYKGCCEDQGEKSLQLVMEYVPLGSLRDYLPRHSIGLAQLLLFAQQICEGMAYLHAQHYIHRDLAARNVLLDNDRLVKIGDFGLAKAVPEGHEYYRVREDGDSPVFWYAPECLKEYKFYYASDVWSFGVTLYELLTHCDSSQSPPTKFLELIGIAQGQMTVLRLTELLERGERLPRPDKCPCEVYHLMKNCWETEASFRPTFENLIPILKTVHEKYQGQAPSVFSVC
The test can be described thus: TYK2 inhibition (Table 4).

For orientation: Ki means the equilibrium dissociation constant of an inhibitor or competing ligand from its target.

The structures appear in SMILES notation. Like-named read-outs stand apart in the source and are kept apart here.

T1 sequence (O60674 812-1132): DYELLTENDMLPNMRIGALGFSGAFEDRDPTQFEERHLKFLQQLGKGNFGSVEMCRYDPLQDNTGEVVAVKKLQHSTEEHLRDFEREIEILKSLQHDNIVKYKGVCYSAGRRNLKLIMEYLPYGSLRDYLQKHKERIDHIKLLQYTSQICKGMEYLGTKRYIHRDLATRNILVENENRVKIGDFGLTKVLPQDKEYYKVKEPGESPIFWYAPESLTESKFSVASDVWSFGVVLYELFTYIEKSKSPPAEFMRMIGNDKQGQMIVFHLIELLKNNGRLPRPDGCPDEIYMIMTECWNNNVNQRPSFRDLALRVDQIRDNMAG
T2 sequence (P52333 783-1124): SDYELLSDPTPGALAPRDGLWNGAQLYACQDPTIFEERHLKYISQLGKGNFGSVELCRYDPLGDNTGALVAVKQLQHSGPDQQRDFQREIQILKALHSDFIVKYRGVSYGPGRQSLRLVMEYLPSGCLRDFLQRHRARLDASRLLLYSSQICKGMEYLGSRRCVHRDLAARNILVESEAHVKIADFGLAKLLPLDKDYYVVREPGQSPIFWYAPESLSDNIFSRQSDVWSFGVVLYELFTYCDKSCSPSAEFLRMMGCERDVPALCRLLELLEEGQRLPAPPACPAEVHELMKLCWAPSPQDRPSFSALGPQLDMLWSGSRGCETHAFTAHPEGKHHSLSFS

On to `CC1(n2cnc3cnc4[nH]ccc4c32)CCN(Cc2cncnc2)CC1` [Example 322, 1-(4-Methyl-1-pyrimidin-5-ylmethyl-piperidin-4-yl)-1,6-dihydro-1,3,5,6-tetraaza-as-indacene], for which the values for the inhibition constant Ki on JAK2 (read-out: JAK2 Ki), on JAK3 and on TYK2 were 0.0255 µM, 0.0848 µM and 0.426 µM, respectively.

Take `CC1(n2cnc3cnc4[nH]ccc4c32)CCN(CCC#N)CC1` [Example 330, 3-[4-Methyl-4-(6H-1,3,5,6-tetraaza-as-indacen-1-yl)-piperidin-1-yl]-propionitrile]: the inhibitory constant (Ki) is 0.122 µM on JAK2 (read-out: JAK2 Ki), 0.269 µM at JAK3 and 0.271 µM on TYK2.

Take `CC1(n2cnc3cnc4[nH]ccc4c32)CCN(S(C)(=O)=O)CC1` [Example 332, 1-(1-Methanesulfonyl-4-methyl-piperidin-4-yl)-1,6-dihydro-1,3,5,6-tetraaza-as-indacene]: the Ki on JAK2 (read-out: JAK2 Ki) was 0.00795 µM; on JAK3, 0.0714 µM; at TYK2 it was 0.0311 µM.

As for `Cn1ccnc1CCc1nc2cnc3[nH]ccc3c2n1C1CCN(CCC#N)CC1` [Example 411, 3-(4-{2-[2-(1-Methyl-1H-imidazol-2-yl)-ethyl]-6H-1,3,5,6-tetraaza-as-indacen-1-yl}-piperidin-1-yl)-propionitrile], the Ki on JAK2 (read-out: JAK2 Ki) came out at 0.0644 µM; at JAK3, 0.154 µM; on TYK2, 0.422 µM.

On to `CCS(=O)(=O)NCCc1nc2cnc3[nH]ccc3c2n1C1CCCCC1` [Example 512, Ethanesulfonic acid [2-(1-cyclohexyl-1,6-dihydro-1,3,5,6-tetraaza-as-indacen-2-yl)-ethyl]-amide], for which the Ki on JAK2 (read-out: JAK2 Ki) amounted to 0.0283 µM; on JAK3 it was 0.0617 µM; at TYK2, 0.022 µM.

For `CS(=O)(=O)NCCc1nc2cnc3[nH]ccc3c2n1C1CCCCC1` [Example 514, N-[2-(1-Cyclohexyl-1,6-dihydro-1,3,5,6-tetraaza-as-indacen-2-yl)-ethyl]-methanesulfonamide], the Ki at JAK2 (read-out: JAK2 Ki) worked out at 0.0243 µM; on JAK3, 0.0282 µM; on TYK2, 0.0158 µM.

`CC(C)C(=O)N[C@H]1CC[C@H](n2cnc3cnc4[nH]ccc4c32)CC1` [Example 571, trans N-[4-(6H-1,3,5,6-Tetraaza-as-indacen-1-yl)-cyclohexyl]-isobutyramide]: the Ki on JAK2 (read-out: JAK2 Ki) was determined as 0.0211 µM; at JAK3 it was 0.197 µM; on TYK2, 0.101 µM.

On to `c1cc2c(ncc3ncn([C@H]4CC[C@H](NCC5CC5)CC4)c32)[nH]1` [Example 574, trans Cyclopropylmethyl-[4-(6H-1,3,5,6-tetraaza-as-indacen-1-yl)-cyclohexyl]-amine], for which the Ki at JAK2 (read-out: JAK2 Ki) was found to be 0.0546 µM; at JAK3, 0.232 µM; at TYK2 it was 0.125 µM.

Turning to `c1cc2c(ncc3ncn([C@H]4CC[C@H](N5CCOCC5)CC4)c32)[nH]1` [Example 594, Trans 1-(4-Morpholin-4-yl-cyclohexyl)-1,6-dihydro-1,2,3,5,6-tetraaza-as-indacene], the inhibitory constant (Ki) turned out to be 0.0227 µM on JAK2 (read-out: JAK2 Ki), 0.334 µM on JAK3 and 0.0766 µM at TYK2.

Consider `N#C[C@@H]1CCN([C@H]2CC[C@H](n3cnc4cnc5[nH]ccc5c43)CC2)C1` [Example 596, Trans (R)-1-[4-(6H-1,2,3,5,6-tetraaza-as-indacen-1-yl)-cyclohexyl]-pyrrolidine-3-carbonitrile], for which the Ki on JAK2 (read-out: JAK2 Ki) worked out at 0.00551 µM; on JAK3, 0.0674 µM; at TYK2 it was 0.0175 µM.

Regarding `Cc1nc2cnc3[nH]ccc3c2n1[C@H]1CC[C@H](C(C)(C)O)CC1` [Example 632, 2-[4-(2-Methyl-6H-1,2,3,5,6-tetraaza-as-indacen-1-yl)-cyclohexyl]-propan-2-ol], the values for the Ki at JAK2 (read-out: JAK2 Ki), on JAK3 and on TYK2 were 0.0035 µM, 0.0368 µM and 0.0137 µM, respectively.

Turning to `COC[C@H]1CC[C@H](n2c(CNS(C)(=O)=O)nc3cnc4[nH]ccc4c32)CC1` [Example 638, Trans N-[1-(4-methoxymethyl-cyclohexyl)-1,6-dihydro-1,2,3,5,6-tetraaza-as-indacen-2-ylmethyl]-methanesulfonamide], the Ki at JAK2 (read-out: JAK2 Ki) stood at 0.0777 µM; at JAK3, 0.15 µM; on TYK2 it was 0.0707 µM.

Consider `C[C@@H](O)c1nc2cnc3[nH]ccc3c2n1C1CCCCC1` [Example 671, (R)-1-(1-Cyclohexyl-1,6-dihydro-1,2,3,5,6-tetraaza-as-indacen-2-yl)-ethanol], for which the Ki came to 0.0181 µM on JAK2 (read-out: JAK2 Ki), 0.0225 µM on JAK3 and 0.00247 µM at TYK2.

Turning to `C[C@@H](O)c1nc2cnc3[nH]ccc3c2n1C1CCCCC1` [Example 672, (R)-1-(1-Cyclohexyl-1,6-dihydro-1,2,3,5,6-tetraaza-as-indacen-2-yl)-ethanol-d11], the inhibition constant (Ki) was determined as 0.0198 µM at JAK2 (read-out: JAK2 Ki), 0.0172 µM at JAK3 and 0.00301 µM on TYK2.

Take `CS(=O)(=O)NCc1nc2cnc3[nH]ccc3c2n1C1CCN(CC(F)(F)F)CC1` [Example 692, N-{1-[1-(2,2,2-Trifluoro-ethyl)-piperidin-4-yl]-1,6-dihydro-1,2,3,5,6-tetraaza-as-indacen-2-ylmethyl}-methanesulfonamide]: the figures for the inhibition constant Ki at JAK2 (read-out: JAK2 Ki), on JAK3 and at TYK2 were 0.0466 µM, 0.0684 µM and 0.118 µM, respectively.

On to `CC(C)(CF)N1CCC(n2c(CNS(C)(=O)=O)nc3cnc4[nH]ccc4c32)CC1` [Example 693, N-{1-[1-(2-Fluoro-1,1-dimethyl-ethyl)-piperidin-4-yl]-1,6-dihydro-1,2,3,5,6-tetraaza-as-indacen-2-ylmethyl}-methanesulfonamide], for which the Ki at JAK2 (read-out: JAK2 Ki) is 0.0721 µM; at JAK3, 0.303 µM; on TYK2 it was 0.332 µM.

For the molecule `CC1(n2cnc3cnc4[nH]ccc4c32)CCN(CC(F)(F)F)CC1` [Example 752, 1-[4-Methyl-1-(2,2,2-trifluoro-ethyl)-piperidin-4-yl]-1,6-dihydro-1,3,5,6-tetraaza-as-indacene], the Ki at JAK2 (read-out: JAK2 Ki) stood at 0.0972 µM; at JAK3, 0.24 µM; on TYK2, 0.264 µM.

Regarding `c1cc2c(ncc3ncn(C4CCC(N5CCOCC5)CC4)c32)[nH]1` (stereo not drawn) [Example 775, 1-(4-Morpholin-4-yl-cyclohexyl)-1,6-dihydro-1,3,5,6-tetraaza-as-indacene], the inhibition constant (Ki) was determined as 0.238 µM on JAK2 (read-out: JAK2 Ki), 0.91 µM at JAK3 and 0.843 µM at TYK2.

For the molecule `CS(=O)(=O)NCc1nc2cnc3[nH]ccc3c2n1[C@H]1CCCOC1` [Example 855, (S)—N-[1-(Tetrahydro-pyran-3-yl)-1,6-dihydro-1,3,5,6-tetraaza-as-indacen-2-ylmethyl]-methanesulfonamide], the Ki on JAK2 (read-out: JAK2 Ki) amounted to 0.117 µM; at JAK3 it was 0.493 µM; on TYK2, 0.112 µM.

With `CS(=O)(=O)NCc1nc2cnc3[nH]ccc3c2n1[C@@H]1CCCOC1` [Example 866, (R)—N-[1-(Tetrahydro-pyran-3-yl)-1,6-dihydro-1,3,5,6-tetraaza-as-indacen-2-ylmethyl]-methanesulfonamide], the results for the inhibitory constant (Ki) on JAK2 (read-out: JAK2 Ki), on JAK3 and on TYK2 were 0.604 µM, 1.11 µM and 1.06 µM, respectively.

Turning to `CS(=O)(=O)NCc1nc2cnc3[nH]ccc3c2n1C1CCCC1` [Example 874, N-(1-Cyclopentyl-1,6-dihydro-1,3,5,6-tetraaza-as-indacen-2-ylmethyl)-methanesulfonamide], the Ki on JAK2 (read-out: JAK2 Ki) was determined as 0.162 µM; on JAK3, 0.242 µM; on TYK2 it was 0.114 µM.

As for `CS(=O)(=O)NCc1nc2cnc3[nH]ccc3c2n1C1CC2CCC1C2` (stereo not drawn) [Example 894, N-(1-Bicyclo[2.2.1]hept-2-yl-1,6-dihydro-1,3,5,6-tetraaza-as-indacen-2-ylmethyl)-methanesulfonamide], the Ki on JAK2 (JAK2 Ki) was 0.00618 µM; on JAK3, 0.0374 µM; at TYK2 it was 0.00646 µM.

Regarding `CS(=O)(=O)NCc1nc2cnc3[nH]ccc3c2n1C1CCN(CCF)CC1` [Example 913, N-{1-[1-(2-Fluoro-ethyl)-piperidin-4-yl]-1,6-dihydro-1,3,5,6-tetraaza-as-indacen-2-ylmethyl}-methanesulfonamide], the Ki on JAK2 (read-out: JAK2 Ki) worked out at 0.0547 µM; at JAK3 it was 0.0614 µM; on TYK2, 0.116 µM.

As for `CS(=O)(=O)NCc1nc2cnc3[nH]ccc3c2n1C1CCN(CC(F)F)CC1` [Example 914, N-{1-[1-(2,2-Difluoro-ethyl)-piperidin-4-yl]-1,6-dihydro-1,3,5,6-tetraaza-as-indacen-2-ylmethyl}-methanesulfonamide], the values for the Ki at JAK2 (read-out: JAK2 Ki), on JAK3 and on TYK2 were 0.0354 µM, 0.0606 µM and 0.0403 µM, respectively.

As for `CC1CCCCC1n1c(CNS(C)(=O)=O)nc2cnc3[nH]ccc3c21` (stereo not drawn) [Example 917, N-[1-(2-Methyl-cyclohyl)-1,6-dihydro-1,3,5,6-tetraaza-as-indacen-2-ylmethyl]-methanesulfonamide], the Ki came out at 0.0736 µM at JAK2 (read-out: JAK2 Ki), 0.065 µM at JAK3 and 0.112 µM at TYK2.

For `CC(=O)NCc1nc2cnc3[nH]ccc3c2n1C1CCCCC1` [Example 918, N-(1-Cyclohyl-1,6-dihydro-1,3,5,6-tetraaza-as-indacen-2-ylmethyl)-acetamide], the inhibition constant Ki was 0.0939 µM on JAK2 (read-out: JAK2 Ki), 0.06 µM at JAK3 and 0.0301 µM on TYK2.

With `Cc1nc2cnc3[nH]ccc3c2n1[C@H]1CC[C@@H](C(C)(C)O)CC1` [Example 958, Cis-2-[4-(2-Methyl-6H-1,3,5,6-tetraaza-as-indacen-1-yl)-cyclohexyl]-propan-2-ol], the Ki at JAK2 (read-out: JAK2 Ki) was found to be 0.00513 µM; on JAK3 it was 0.0368 µM; on TYK2, 0.0143 µM.
